# “Also recorded” adds a separate entry of the source.
# What was measured:
# bothersome tinnitus = details: similar clinical trial; 85% of patients correctly guessed the treatment arm; cited from earlier work
# [1] = system: Major Depressive Disorder; details: 50% nitrous oxide; cited from earlier work
# [2] = system: patients with severe TRMD; test: Same trial; Quick Inventory of Depressive Symptomology-Self Report (QIDS-SR); format: in vivo, human
# Source text: (§1) The trial was registered at clinicaltrials.gov (NCT03283670).
# (§2) Patients were recruited from an existing database of TRMD patients identified through participation in a secondary referral clinic for TRMD at Washington University Department of Psychiatry, as well as from the “Volunteers for Health” patient pool (individuals with various medical/psychiatric conditions who volunteer to participate in clinical research) within Washington University School of Medicine. Inclusion criteria were a) adults 18-75 years of age; b) current diagnosis of unipolar major depressive disorder (MDD) without psychosis as confirmed by the Mini International Neuropsychiatric Interview; c) a score of ≥19 on the Montgomery-Asberg Depression Rating Scale (MADRS); d) documented lifetime failure to respond to ≥3 adequate dose/duration antidepressant treatment trials, including ≥1 antidepressant medication failure(s) in the current depressive episode; and e) good command of the English language. […] Patients were instructed to continue their current standard of care MDD treatment and to maintain a stable psychotropic medication dosage or psychotherapy regimen for 4 weeks prior to initiation of the study and throughout the study. […]
# patients with TRMD = details: 50% nitrous oxide, one one-hour inhalation; cited from earlier work
# [3] = system: patients with severe TRMD; test: Same trial; treatment safety, monitoring of adverse events; details: for Stomach virus: >24 hours after inhalation session, count (%)
# Source text: (§3) The study was a single-center, double-blind, randomized placebo-controlled crossover trial. All subjects underwent three one-hour inhalation sessions in random order, each separated by at least 4 weeks. The sessions included: placebo (0% N20), 25% N20, and 50% N20 balanced with air/oxygen. Blinding was executed by separating locations and teams for inhalation treatments and psychiatric evaluations. Only the anesthesia team administering the inhalation treatments was aware of study group assignment; all other participants, including patients and raters, were blinded. Likewise, the study setup was identical for all sessions, and gas flow meters were concealed, making inadvertent unblinding unlikely. The study was approved by the Washington University in St. Louis Institutional Review Board, and all patients provided written, informed consent. The trial was registered at clinicaltrials.gov (NCT03283670).
# (§4) All three inhalation sessions were scheduled for one hour. […] Except for the choice of inhalational gas admixture, treatment sessions were otherwise identical. The gas mix was administered via a standard anesthesia facemask through tubing connected to the anesthesia machine or an FDA-approved Porter/Praxair MXR breathing circuit. A small sample connector line was inserted into the facemask allowing the measurement of inhaled and exhaled gas concentrations. […] Patients were monitored during and after the treatment according to American Society of Anesthesiologists standards which include continuous 3-lead ECG, pulse oximetry, non-invasive blood pressure, and end tidal CO2 measurement under the supervision of an attending-level anesthesiologist. After the one-hour treatment session, patients were monitored in a recovery room for up to one hour at which time a study team physician determined whether the patient met criteria for discharge.
# (§5) Data were collected at (a) baseline (prior to each inhalation session), (b) 2-hours, (c) 24 hours, (d) 1 week, and (e) 2 weeks after inhalation. Efficacy of the inhalation treatment on mood was measured using the following: Hamilton Depression Rating Scale 21-item (HDRS-21; primary outcome); Montgomery-Asberg Depression Rating Scale (MADRS); Quick Inventory of Depressive Symptomology-Self Report (QIDS-SR); and the Profile of Mood States 2nd Edition (POMS-2). Other behavioral assessments included an assessment of dissociation, the Clinical Administered Dissociative States Scale 28-item (CADSS-28); and an assessment for the emergence of psychosis, the Brief Psychiatric Rating Scale 18-item (BPRS-18). These mood and behavioral assessments were performed by a blinded member of the psychiatry study team. Additionally, adequacy of the blind was assessed by a Blinding Questionnaire given after completion of each inhalation session. Treatment safety was assessed by monitoring adverse events (AEs) related to (a) cardiovascular status; (b) respiratory function; (c) central nervous system; and (d) psychiatric symptoms, particularly the presence of psychotic symptoms.
# Finally, we also tested for a linear dose-response relation. Differences between categorical outcomes (response, remission) were tested by Fisher-Exact test; relative risk and 95% confidence intervals were calculated using the Koopman asymptotic score. Differences in the count of adverse events were compared by the Kruskal-Wallis test. All reported p-values are two-sided and a p-value of <0.05 was considered statistically significant. All analyses were conducted using SuperMix (Scientific Software International, Lincolnwood Ill.).
# [4] = system: patients with severe TRMD; test: Same trial; Profile of Mood States 2nd Edition (POMS-2); format: in vivo, human
# Source text: as §1, §2
# [5] = system: patients with severe TRMD; test: Same trial; Montgomery-Asberg Depression Rating Scale (MADRS); format: in vivo, human; details: 25% nitrous oxide
# Source text: as §1, §2
# [6] = system: patients with severe TRMD; test: Phase 2 double-blind randomized placebo-controlled crossover trial, single 1-hour inhalation; Hamilton Depression Rating Scale (HDRS-21, primary outcome); format: in vivo, human; details: for Estimated difference between 25% and placebo (HDRS-21) / Estimated difference between 50% and placebo (HDRS-21): single 1-hour inhalation; for Difference vs placebo (HDRS-21): 2 weeks, following a single treatment; for Estimated difference between 50% and 25% (HDRS-21): 50% vs 25% nitrous oxide; for Patients in remission (HDRS ≤7 points) / Patients with treatment response (reduction in HDRS-21 points ≥50%): pre-treatment HDRS-21 >19; for Estimated difference between placebo and the combined 25% and 50% groups (HDRS-21): combined 25% and 50% nitrous oxide
# Source text: as §3
# Patients were recruited from an existing database of TRMD patients identified through participation in a secondary referral clinic for TRMD at Washington University Department of Psychiatry, as well as from the “Volunteers for Health” patient pool (individuals with various medical/psychiatric conditions who volunteer to participate in clinical research) within Washington University School of Medicine. […] Patients were instructed to continue their current standard of care MDD treatment and to maintain a stable psychotropic medication dosage or psychotherapy regimen for 4 weeks prior to initiation of the study and throughout the study. Further, patients were instructed not to modify their antidepressant treatments during the three month course of the trial (i.e., discouraged from adding new antidepressants or modifying existing antidepressant dosages).
# Following the in-person screen, each of the three treatment sessions consisted of […]: pre-inhalation mood assessment, inhalation, and post-inhalation follow-up sessions at 22-28 hours, 1 week, and 2 weeks. An additional assessment was completed 4 weeks following the final inhalation treatment.
# as §4
# as §5, with “session.” for “session. Treatment safety was assessed by monitoring adverse events (AEs) related to (a) cardiovascular status; (b) respiratory function; (c) central nervous system; and (d) psychiatric symptoms, particularly the presence of psychotic symptoms.”
# [7] = system: adult and geriatric patients, milder depression; details: 6 weeks; pooled data of 37 trials of fluoxetine and venlafaxine; cited from earlier work
# [8] = system: adult and geriatric patients, milder depression; test: Gibbons et al. 2012 synthesis of 37 placebo controlled double-blind randomized trials, HDRS-17 outcome; format: in vivo, human; details: 6 weeks; converted from HDRS-17 with the 24% increased range of the 21 item scale; pooled fluoxetine and venlafaxine
# [9] = after 50% nitrous oxide, 5/12 patients
compound,measurement,setting,value
[N-]=[N+]=O [nitrous oxide],Treatment effect for bothersome tinnitus,bothersome tinnitus,did not observe a treatment effect
same,Persistence of efficacy after a single inhalation (case report),[1],beyond one month
same,Results on the QIDS scale,[2]; 25% nitrous oxide,non-significant; also recorded: not statistically significant
same,Results on the QIDS scale,"[2]; 50% nitrous oxide, except at 2 weeks",not statistically significant
same,Effect on depressive symptoms in patients with TRMD (earlier study),patients with TRMD,improved depressive symptoms; also recorded: rapid antidepressant effects
same,Stomach virus,[3]; 25% N2O (n = 20),0
same,Stomach virus,[3]; 50% N2O (n = 23),0
same,Car Crash (minor),"[3]; human, in vivo",1 (4%)
same,Fainting Spell,"[3]; human, in vivo",1 (4%)
same,Haziness,"[3]; human, in vivo",3 (13%)
same,Haziness,"[3]; human, in vivo, 1 h",1(5%)
same,Serious adverse events,[3]; in vivo,None
same,Results on the POMS scale,[4]; 25% nitrous oxide,non-significant
same,Results on the POMS scale,[4]; 50% nitrous oxide,significant at 2 weeks
same,MADRS efficacy,[5],not significant
same,Estimated difference between 25% and placebo (HDRS-21),"[6]; 25% nitrous oxide, 2 hours",−0.75 points
same,Estimated difference between 25% and placebo (HDRS-21),"[6]; 25% nitrous oxide, 24 hours",−1.41 points
same,Estimated difference between 25% and placebo (HDRS-21),"[6]; 25% nitrous oxide, week 1",−4.35 points
same,Estimated difference between 25% and placebo (HDRS-21),"[6]; 25% nitrous oxide, week 2",−5.19 points
same,Difference vs placebo (HDRS-21),[6]; 25% nitrous oxide,−5.19 units
same,"Effect size d, 25% vs placebo (HDRS-21)","[6]; 25% nitrous oxide, 2 hours",0.16
same,"Effect size d, 25% vs placebo (HDRS-21)","[6]; 25% nitrous oxide, 24 hours",0.21
same,"Effect size d, 25% vs placebo (HDRS-21)","[6]; 25% nitrous oxide, week 1",0.38
same,"Effect size d, 25% vs placebo (HDRS-21)","[6]; 25% nitrous oxide, week 2",0.62
same,Estimated difference between 50% and placebo (HDRS-21),"[6]; 50% nitrous oxide, 2 hours",−0.87 points
same,Estimated difference between 50% and placebo (HDRS-21),"[6]; 50% nitrous oxide, 24 hours",−1.93 points
same,Estimated difference between 50% and placebo (HDRS-21),"[6]; 50% nitrous oxide, week 1",−2.44 points
same,Estimated difference between 50% and placebo (HDRS-21),"[6]; 50% nitrous oxide, week 2",−7.00 points
same,Difference vs placebo (HDRS-21),[6]; 50% nitrous oxide,−7.00 HDRS-21 units
same,"Effect size d, 50% vs placebo (HDRS-21)","[6]; 50% nitrous oxide, 2 hours",0.29
same,"Effect size d, 50% vs placebo (HDRS-21)","[6]; 50% nitrous oxide, 24 hours",0.32
same,"Effect size d, 50% vs placebo (HDRS-21)","[6]; 50% nitrous oxide, week 1",0.35
same,"Effect size d, 50% vs placebo (HDRS-21)","[6]; 50% nitrous oxide, week 2",0.85
same,Estimated difference between 50% and 25% (HDRS-21),[6]; 2 hours,0.11 points
same,Estimated difference between 50% and 25% (HDRS-21),[6]; 24 hours,0.42 points
same,Estimated difference between 50% and 25% (HDRS-21),[6]; week 1,1.91 points
same,Estimated difference between 50% and 25% (HDRS-21),[6]; week 2,−1.67 points
same,Patients in remission (HDRS ≤7 points),"[6]; after 25% nitrous oxide, 2/9 patients",22.2%
same,Patients with treatment response (reduction in HDRS-21 points ≥50%),"[6]; after 25% nitrous oxide, 3/9 patients",33.3%
same,Patients in remission (HDRS ≤7 points),[6]; [9],41.7%
same,Patients with treatment response (reduction in HDRS-21 points ≥50%),[6]; [9],41.7%
same,Estimated difference between placebo and the combined 25% and 50% groups (HDRS-21),[6]; 2 hours,−0.81 points
same,Estimated difference between placebo and the combined 25% and 50% groups (HDRS-21),[6]; 24 hours,−1.67 points
same,Estimated difference between placebo and the combined 25% and 50% groups (HDRS-21),[6]; week 1,−3.35 points
same,Estimated difference between placebo and the combined 25% and 50% groups (HDRS-21),[6]; week 2,−6.13 points
same,Median HDRS-21 score at study completion,"[6]; entire 3-month course (25%, 50% nitrous oxide and placebo sessions), completers n=20, baseline median 20.5",8.5 (IQR 2.0-16.0)
same,Median change in HDRS-21 from baseline to study completion,"[6]; entire 3-month course (25%, 50% nitrous oxide and placebo sessions), n=20, IQR −3.3 to −14.0",−11.0 points
same,Patients in remission at study completion (HRDS≤7 points),"[6]; entire 3-month course, n=20, 8/20",40%
same,Patients with treatment response at study completion (reduction in HRDS-21 points ≥50%),"[6]; entire 3-month course, n=20, 11/20",55%
same,Patients with improvement in depressive symptoms by at least one category at study completion,"[6]; entire 3-month course, n=20, 17/20",85%
same,Median reduction of HDRS-21,[6]; entire 3-month treatment regimen with 2 treatments with nitrous oxide,11 HDRS-21 points
same,Dose-response relation (HDRS-21 decrease),[6]; week 2,−3.51 per 25% increase in dose
COc1ccc(C(CN(C)C)C2(O)CCCCC2)cc1 (centres unmarked) [venlafaxine],Estimated separation between active treatment and placebo control (HDRS-17),[7],−2.55 HDRS-17 units
same,Equivalent difference on the HDRS-21,[8],−3.16 unit
CNCCC(Oc1ccc(C(F)(F)F)cc1)c1ccccc1 (centres unmarked) [fluoxetine],Estimated separation between active treatment and placebo control (HDRS-17),[7],−2.55 HDRS-17 units
same,Equivalent difference on the HDRS-21,[8],−3.16 unit

# — patent publication US20220313728A1 (priority 2021, published 2022)
